In US20100216779A1 (GLAXOSMITHKLINE LLC, priority 2007, published 2010) one finds IC50 data, which are given here for 13 compounds.

SMILES strings stand for the structures. Bounds are passed on as bounds.

Format in all cases: cell-based
Experiment [1] relates to NCI-H929 (multiple myeloma). Description: Inhibition of cell proliferation, CellTiter-Glo, NCI-H929. The conditions noted are these: Homo sapiens, 72 h. The method, boiled down:
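Cells were grown in medium with 10% FBS at 37° C, 5% CO2. Cell number was read as CellTiter-Glo luminescence (cellular ATP), with untreated wells as control.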
A general note: ATP-based viability assays read luminescence as a measure of living cells.

Experiment [2] concerns the target T1, IR (NIH-3T3 cells over expressing human IGF-1R or IR) (Homo sapiens, UniProt P06213).
T1 construct: expressed in transfected cells; host or cells: NIH-3T3 (mouse fibroblasts)
Briefly: IR cellular autophosphorylation (DELFIA). The conditions noted are these: NIH-3T3 cells over expressing IR, insulin stimulated. The method, boiled down:
(§1)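 Readout: DELFIA on lysates, with anti-IGF-1R or anti-IR capture and europium anti-pTyr detection, expressed relative to 100% ligand-stimulated signal. Human IGF-1R- or IR-overexpressing NIH-3T3 cells got compound (1.5 nM–30 uM) for 2 h before 15 min IGF-1 (30 ng/mL) or insulin (3 ug/mL).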

Experiment [3] addresses T2, human IGF-1R (NIH-3T3 cells over expressing human IGF-1R) (Homo sapiens, UniProt P08069).
T2 construct: expressed in transfected cells; host or cells: NIH-3T3 (mouse fibroblasts)
Briefly: IGF-1R cellular autophosphorylation (DELFIA). The settings on record: IGF-1 stimulated. The method, boiled down:
as §1

The subject of another experiment is COLO205 (colon). Briefly: Inhibition of cell proliferation, CellTiter-Glo, COLO205. The settings on record: Homo sapiens, COLO 205, 72 h. The method, boiled down:
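Exponentially growing COLO205 cells in medium with 10% FBS were plated below 2000 cells/well at 37 °C, 5% CO2. Untreated wells served as controls.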

T2 sequence (P08069 31-1367): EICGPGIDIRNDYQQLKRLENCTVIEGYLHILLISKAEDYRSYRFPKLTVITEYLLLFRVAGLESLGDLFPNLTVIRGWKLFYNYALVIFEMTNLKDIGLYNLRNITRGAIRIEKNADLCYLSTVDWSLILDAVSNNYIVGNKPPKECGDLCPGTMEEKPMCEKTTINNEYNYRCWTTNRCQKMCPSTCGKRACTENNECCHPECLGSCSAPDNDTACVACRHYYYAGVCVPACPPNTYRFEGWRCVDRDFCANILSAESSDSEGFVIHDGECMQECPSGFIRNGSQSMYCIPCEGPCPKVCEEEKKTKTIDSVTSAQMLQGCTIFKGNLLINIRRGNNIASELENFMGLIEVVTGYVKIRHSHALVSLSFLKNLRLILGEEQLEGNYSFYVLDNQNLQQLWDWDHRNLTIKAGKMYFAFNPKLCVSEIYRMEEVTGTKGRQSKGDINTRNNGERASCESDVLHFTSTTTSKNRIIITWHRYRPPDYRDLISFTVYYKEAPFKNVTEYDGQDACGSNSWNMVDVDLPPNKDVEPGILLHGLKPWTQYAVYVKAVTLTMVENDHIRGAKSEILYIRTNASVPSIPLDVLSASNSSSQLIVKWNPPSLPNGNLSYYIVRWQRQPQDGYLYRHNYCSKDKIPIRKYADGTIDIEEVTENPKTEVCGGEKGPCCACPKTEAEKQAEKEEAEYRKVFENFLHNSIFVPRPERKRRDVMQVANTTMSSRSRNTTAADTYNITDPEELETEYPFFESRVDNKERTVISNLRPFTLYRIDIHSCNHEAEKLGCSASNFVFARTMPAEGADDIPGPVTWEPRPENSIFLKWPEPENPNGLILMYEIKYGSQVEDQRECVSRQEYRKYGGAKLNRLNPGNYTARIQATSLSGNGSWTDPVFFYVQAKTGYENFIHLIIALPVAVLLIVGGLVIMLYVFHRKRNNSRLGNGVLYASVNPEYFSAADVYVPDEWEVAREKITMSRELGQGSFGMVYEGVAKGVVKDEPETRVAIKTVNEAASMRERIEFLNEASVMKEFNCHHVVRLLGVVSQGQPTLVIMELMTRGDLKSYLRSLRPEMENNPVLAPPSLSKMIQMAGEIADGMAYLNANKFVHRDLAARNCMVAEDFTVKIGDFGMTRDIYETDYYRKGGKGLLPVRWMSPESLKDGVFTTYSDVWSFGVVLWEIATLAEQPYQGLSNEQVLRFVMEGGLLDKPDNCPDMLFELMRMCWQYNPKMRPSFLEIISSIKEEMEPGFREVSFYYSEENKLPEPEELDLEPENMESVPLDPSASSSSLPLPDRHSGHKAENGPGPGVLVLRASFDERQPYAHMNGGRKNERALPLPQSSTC
T1 sequence (P06213 28-1382): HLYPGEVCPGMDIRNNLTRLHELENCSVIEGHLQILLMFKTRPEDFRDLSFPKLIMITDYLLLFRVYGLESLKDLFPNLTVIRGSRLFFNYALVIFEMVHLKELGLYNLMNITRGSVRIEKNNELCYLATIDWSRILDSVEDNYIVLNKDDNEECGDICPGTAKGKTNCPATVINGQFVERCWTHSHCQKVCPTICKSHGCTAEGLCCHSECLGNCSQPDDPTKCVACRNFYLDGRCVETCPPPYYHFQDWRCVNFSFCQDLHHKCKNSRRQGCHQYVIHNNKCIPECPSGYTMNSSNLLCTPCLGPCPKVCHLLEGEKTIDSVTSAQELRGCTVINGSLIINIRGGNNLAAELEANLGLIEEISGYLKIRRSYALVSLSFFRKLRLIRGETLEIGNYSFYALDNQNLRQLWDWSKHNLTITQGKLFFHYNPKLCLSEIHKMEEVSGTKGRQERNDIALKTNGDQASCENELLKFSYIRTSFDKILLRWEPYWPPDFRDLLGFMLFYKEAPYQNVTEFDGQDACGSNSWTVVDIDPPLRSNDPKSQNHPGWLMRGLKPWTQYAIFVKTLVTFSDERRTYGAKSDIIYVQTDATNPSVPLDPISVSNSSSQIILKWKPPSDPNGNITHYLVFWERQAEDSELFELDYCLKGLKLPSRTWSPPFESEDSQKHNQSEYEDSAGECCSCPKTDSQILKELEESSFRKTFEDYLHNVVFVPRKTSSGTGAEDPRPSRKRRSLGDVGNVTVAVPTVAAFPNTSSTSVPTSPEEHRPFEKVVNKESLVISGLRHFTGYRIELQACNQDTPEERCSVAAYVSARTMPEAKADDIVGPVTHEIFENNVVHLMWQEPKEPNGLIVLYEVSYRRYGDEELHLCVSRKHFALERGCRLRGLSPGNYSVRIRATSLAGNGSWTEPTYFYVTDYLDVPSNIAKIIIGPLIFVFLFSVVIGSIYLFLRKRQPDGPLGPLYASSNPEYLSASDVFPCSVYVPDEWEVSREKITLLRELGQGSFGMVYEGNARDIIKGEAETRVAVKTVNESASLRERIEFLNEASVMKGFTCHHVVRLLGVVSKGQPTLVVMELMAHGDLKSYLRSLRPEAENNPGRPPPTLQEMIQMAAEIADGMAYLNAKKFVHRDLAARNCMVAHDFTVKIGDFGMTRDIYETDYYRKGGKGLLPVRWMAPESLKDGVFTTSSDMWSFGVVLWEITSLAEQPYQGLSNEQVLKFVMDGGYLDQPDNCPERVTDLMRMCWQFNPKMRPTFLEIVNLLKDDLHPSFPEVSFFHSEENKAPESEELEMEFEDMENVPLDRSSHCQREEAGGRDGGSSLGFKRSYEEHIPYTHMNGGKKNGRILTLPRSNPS

Usually IC50 stands for the point on the concentration scale where inhibition reaches its midpoint. In the case of `CCOc1cc(N2CCN(C(C)C)CC2)ccc1Nc1nccc(-c2c(-c3ccc(OC)c(C(=O)Nc4c(F)cccc4F)c3)nc3ccccn23)n1` [Example 172, N-(2,6-difluorophenyl)-5-{3-[2-({2-(ethyloxy)-4-[4-(1-methylethyl)-1-piperazinyl]phenyl}-amino)-4-pyrimidinyl]imidazo[1,2-a]pyridin-2-yl}-2-(methyloxy)benzamide], the IC50 in experiment [1] is under 250 nM; in experiment [2] it was under 100 nM; in experiment [3], under 100 nM; in the experiment with COLO205 (colon) it was 250 to 1000 nM.

For the compound `COc1cc(N2CCC(N3CCN(S(C)(=O)=O)CC3)CC2)c(C)cc1Nc1nccc(-c2c(-c3cccc(C(=O)Nc4c(F)cccc4F)c3)nc3ccccn23)n1` [Example 245, N-(2,6-difluorophenyl)-3-(3-{2-[(5-methyl-2-(methyloxy)-4-{4-[4-(methylsulfonyl)-1-piperazinyl]-1-piperidinyl}phenyl)amino]-4-pyrimidinyl}imidazo[1,2-a]pyridin-2-yl)benzamide], the IC50 was under 250 nM in experiment [1], under 100 nM in experiment [2], under 100 nM in experiment [3] and 250 to 1000 nM in the experiment on COLO205 (colon).

In the case of `COc1cc(N2CCC(N3CCN4CCOC[C@@H]4C3)CC2)ccc1Nc1nccc(-c2c(-c3ccc(OC)c(C(=O)Nc4c(F)cccc4F)c3)nc3ccccn23)n1` [Example 88, N-(2,6-difluorophenyl)-5-[3-(2-{[4-{4-[(9aS)-hexahydropyrazino[2,1-c][1,4]oxazin-8(1H)-yl]-1-piperidinyl}-2-(methyloxy)phenyl]amino}-4-pyrimidinyl)imidazo[1,2-a]pyridin-2-yl]-2-(methyloxy)benzamide], the IC50 in experiment [1] is under 250 nM; in experiment [2], under 100 nM; in experiment [3], under 100 nM; with COLO205 (colon), over 1000 nM.

Take `CCCN1CCN(c2ccc(Nc3nccc(-c4c(-c5ccc(OCC)c(C(=O)Nc6c(F)cccc6F)c5)nc5ccccn45)n3)c(OCC)c2)CC1` [Example 152, N-(2,6-difluorophenyl)-2-(ethyloxy)-5-[3-(2-{[2-(ethyloxy)-4-(4-propyl-1-piperazinyl)phenyl]amino}-4-pyrimidinyl)imidazo[1,2-a]pyridin-2-yl]benzamide]: the IC50 in experiment [1] was under 250 nM; in experiment [2] it was under 100 nM; in experiment [3], under 100 nM; in the experiment on COLO205 (colon) it was 250 to 1000 nM.

Consider `CCCN1CCN(c2ccc(Nc3nccc(-c4c(-c5ccc(OC)c(C(=O)Nc6c(F)cccc6F)c5)nc5ccccn45)n3)c(OC)c2)CC1` [Example 174, N-(2,6-difluorophenyl)-2-(methyloxy)-5-[3-(2-{[2-(methyloxy)-4-(4-propyl-1-piperazinyl)phenyl]amino}-4-pyrimidinyl)imidazo[1,2-a]pyridin-2-yl]benzamide], for which the IC50 in experiment [1] is under 250 nM; in experiment [2], under 100 nM; in experiment [3] it was under 100 nM; in the experiment with COLO205 (colon), 250 to 1000 nM.

As for `CCOc1ccc(-c2nc3ccccn3c2-c2ccnc(Nc3cc(CC)c(N4CCN(CCS(C)(=O)=O)CC4)cc3OC)n2)cc1C(=O)Nc1c(F)cccc1F` [Example 235, N-(2,6-difluorophenyl)-5-(3-{2-[(5-ethyl-2-(methyloxy)-4-{4-[2-(methylsulfonyl)ethyl]-1-piperazinyl}phenyl)amino]-4-pyrimidinyl}imidazo[1,2-a]pyridin-2-yl)-2-(ethyloxy)benzamide], the IC50 in experiment [1] is under 250 nM; in experiment [2] it was under 100 nM; in experiment [3] it was under 100 nM; in the experiment on COLO205 (colon), under 250 nM.

Take `COc1cc(N2CCC(N3CCN(CCF)CC3)CC2)ccc1Nc1nccc(-c2c(-c3cccc(C(=O)Nc4c(F)cccc4F)c3)nc3cc(C(F)(F)F)ccn23)n1` [Example 189, N-(2,6-difluorophenyl)-3-[3-(2-{[4-{4-[4-(2-fluoroethyl)-1-piperazinyl]-1-piperidinyl}-2-(methyloxy)phenyl]amino}-4-pyrimidinyl)-7-(trifluoromethyl)imidazo[1,2-a]pyridin-2-yl]benzamide]: the IC50 is 250 to 1000 nM in experiment [1], over 500 nM in experiment [2], 100 to 500 nM in experiment [3] and over 1000 nM in the experiment with COLO205 (colon).

Regarding `COc1cc(C2CCN(CC(C)C)CC2)ccc1Nc1nccc(-c2c(-c3cccc(C(=O)Nc4c(F)cccc4F)c3)nc3ccccn23)n1` [Example 162, N-(2,6-difluorophenyl)-3-{3-[2-({2-(methyloxy)-4-[1-(2-methylpropyl)-4-piperidinyl]phenyl}amino)-4-pyrimidinyl]imidazo[1,2-a]pyridin-2-yl}benzamide], the IC50 in experiment [1] was under 250 nM; in experiment [2], under 100 nM; in experiment [3], under 100 nM; in the experiment on COLO205 (colon) it was 250 to 1000 nM.

For the compound `COc1cc(C2CCN(CCS(C)(=O)=O)CC2)ccc1Nc1nccc(-c2c(-c3cccc(C(=O)Nc4c(F)cccc4F)c3)nc3ccccn23)n1` [Example 180, N-(2,6-difluorophenyl)-3-(3-{2-[(2-(methyloxy)-4-{1-[2-(methylsulfonyl)ethyl]-4-piperidinyl}phenyl)amino]-4-pyrimidinyl}imidazo[1,2-a]pyridin-2-yl)benzamide], the IC50 in experiment [1] was under 250 nM; in experiment [2], under 100 nM; in experiment [3] it was under 100 nM; in the experiment on COLO205 (colon), 250 to 1000 nM.

Turning to `COc1c(Nc2nccc(-c3c(-c4cccc(C(=O)Nc5c(F)cccc5F)c4)nc4ccccn34)n2)ccc(N2CCC(N3CCCCC3)CC2)c1C` [Example 54, 3-[3-(2-{[4-(1,4′-bipiperidin-1′-yl)-3-methyl-2-(methyloxy)phenyl]amino}-4-pyrimidinyl)imidazo[1,2-a]pyridin-2-yl]-N-(2,6-difluorophenyl)benzamide], the IC50 was over 1000 nM in experiment [1], over 500 nM in experiment [2], over 500 nM in experiment [3] and over 1000 nM in the experiment with COLO205 (colon).

Turning to `COc1cc(N2CCC(C3CCN(CCS(C)(=O)=O)CC3)CC2)ccc1Nc1nccc(-c2c(-c3ccc(OC)c(C(=O)Nc4c(F)cccc4F)c3)nc3ccccn23)n1` [Example 98, N-(2,6-difluorophenyl)-2-(methyloxy)-5-(3-{2-[(2-(methyloxy)-4-{1′-[2-(methylsulfonyl)ethyl]-4,4′-bipiperidin-1-yl}phenyl)amino]-4-pyrimidinyl}imidazo[1,2-a]pyridin-2-yl)benzamide], the IC50 in experiment [1] was 250 to 1000 nM; in experiment [2], under 100 nM; in experiment [3], under 100 nM; in the experiment with COLO205 (colon), 250 to 1000 nM.

As to `COc1cc(N2CCC(N3CCN(S(C)(=O)=O)CC3)CC2)ccc1Nc1nccc(-c2c(-c3cccc(C(=O)Nc4c(F)cccc4F)c3)nc3cc(F)ccn23)n1` [Example 196, N-(2,6-difluorophenyl)-3-(7-fluoro-3-{2-[(2-(methyloxy)-4-{4-[4-(methylsulfonyl)-1-piperazinyl]-1-piperidinyl}phenyl)amino]-4-pyrimidinyl}imidazo[1,2-a]pyridin-2-yl)benzamide], the IC50 is under 250 nM in experiment [1], under 100 nM in experiment [2], under 100 nM in experiment [3] and 250 to 1000 nM in the experiment with COLO205 (colon).

As to `CCOc1cc(N2CCN(CCS(C)(=O)=O)CC2)c(CC)cc1Nc1nccc(-c2c(-c3ccc(OCC)c(C(=O)Nc4c(F)cccc4F)c3)nc3ccccn23)n1` [Example 211, N-(2,6-difluorophenyl)-5-(3-{2-[(5-ethyl-2-(ethyloxy)-4-{4-[2-(methylsulfonyl)ethyl]-1-piperazinyl}phenyl)amino]-4-pyrimidinyl}imidazo[1,2-a]pyridin-2-yl)-2-(ethyloxy)benzamide], the IC50 in experiment [1] was under 250 nM; in experiment [2] it was under 100 nM; in experiment [3], under 100 nM; in the experiment with COLO205 (colon), under 250 nM.
